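Interpolation was linear, between the two tested concentrations surrounding the appropriate level; five concentrations were tested over 48 hours in 96-well plates. Abbreviation: GI50, concentration required for 50% inhibition of growth. The concentration for full growth arrest is given as TGI.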
Legend:
Test in all cases: NCI tumour cell line growth inhibition, 48 h
[1] = test system: SNB-19 CNS
[2] = test system: NCI-H522 lung
[3] = test system: ACHN renal
[4] = test system: U251 CNS
[5] = test system: SR leukemia
[6] = test system: UACC-257 melanoma
[7] = test system: UO-31 renal
[8] = test system: HCT-116 colon
[9] = test system: COLO 205 colon
[10] = test system: TK-10 renal
[11] = test system: CCRF-CEM leukemia
[12] = test system: A549 NSCLC
[13] = test system: MDA-MB-435
[14] = test system: SW-620 colon
[15] = test system: EKVX NSCLC
[16] = test system: RXF 393 renal
[17] = test system: NCI-H460 lung
[18] = test system: M14 melanoma
[19] = test system: NCI-H23 lung
[20] = test system: HCC-2998 colon
[21] = test system: K-562 leukemia
[22] = test system: OVCAR-3 ovarian
[23] = test system: 786-0 renal
[24] = test system: SF-295 CNS
[25] = test system: MCF7 breast
[26] = test system: SK-MEL-5 melanoma
[27] = test system: OVCAR-5 ovarian
[28] = test system: SF-268 CNS
[29] = test system: KM12 colon
[30] = test system: HT29 colon
[31] = test system: HS 578T breast
[32] = test system: OVCAR-8 ovarian
[33] = test system: SK-MEL-2 melanoma
[34] = test system: LOX IMVI melanoma
[35] = test system: RPMI-8226 leukemia
[36] = test system: HL-60(TB) leukemia
[37] = test system: MOLT-4 leukemia
[38] = test system: T-47D breast
[39] = test system: SN12C renal
[40] = test system: OVCAR-4 ovarian
[41] = test system: HOP-92 NSCLC
[42] = test system: SK-MEL-28 melanoma
[43] = test system: IGROV1 ovarian
[44] = test system: MDA-MB-231 breast
[45] = test system: CAKI-1 renal
[46] = test system: HOP-62 NSCLC
[47] = test system: HCT-15 colon
[48] = test system: SK-OV-3 ovarian
[49] = test system: A498 renal
[50] = test system: BT-549 breast
[51] = test system: DU-145 prostate
[52] = test system: NCI/ADR-RES ovarian
[53] = test system: PC-3 prostate
[54] = test system: NCI-H226 lung
[55] = test system: MALME-3M melanoma
[56] = test system: UACC-62 melanoma
[57] = test system: SF-539 CNS
[58] = test system: SNB-75 CNS
[59] = test system: MDA-N

Cc1oc2nc[nH]c(=O)c2c1C(=O)/C=C/c1ccc(Cl)cc1 was tested, and the GI50 [1] was 3.28 µM, the TGI [1] was 13.7 µM and the GI50 [2] was 1.79 µM. The TGI [2] was 5.74 µM, the GI50 [3] was 1.99 µM and the TGI [3] was 6.04 µM. The GI50 [4] was 1.97 µM, the TGI [4] was 5.01 µM and the GI50 [5] was 1.51 µM. For the same compound, the TGI [5] was 6.3 µM, the GI50 [6] was 2.72 µM and the TGI [6] was 12.7 µM. The GI50 [7] was 1.09 µM, the TGI [7] was 11 µM and the GI50 [8] was 1.59 µM. For the same compound, the TGI [8] was 3.94 µM, the GI50 [9] was 1.9 µM and the TGI [9] was 4.22 µM. For the same compound, the GI50 [10] was 5.09 µM, the TGI [10] was 13.6 µM and the GI50 [11] was 1.81 µM. It also gave a TGI [11] of 6.94 µM, a GI50 [12] of 2.66 µM and a TGI [12] of 11.2 µM. The GI50 [13] was 2.4 µM, the TGI [13] was 8.64 µM and the GI50 [14] was 2.53 µM. The TGI [14] was 7.19 µM, the GI50 [15] was 2.37 µM and the TGI [15] was 15.9 µM. For the same compound, the GI50 [16] was 1.97 µM, the TGI [16] was 4.98 µM and the GI50 [17] was 2.56 µM. The TGI [17] was 7.03 µM, the GI50 [18] was 1.96 µM and the TGI [18] was 6.72 µM. It also gave a GI50 [19] of 2.51 µM, a TGI [19] of 15.3 µM and a GI50 [20] of 1.79 µM. For the same compound, the TGI [20] was 3.65 µM, the GI50 [21] was 1.82 µM and the TGI [21] was 11.3 µM. It also gave a GI50 [22] of 2.3 µM, a TGI [22] of 7.83 µM and a GI50 [23] of 3.02 µM. The TGI [23] was 10.3 µM, the GI50 [24] was 4.5 µM and the TGI [24] was 16 µM. It also gave a GI50 [25] of 1.39 µM, a TGI [25] of 12.3 µM and a GI50 [26] of 2.25 µM. The TGI [26] was 5.85 µM, the GI50 [27] was 3.17 µM and the TGI [27] was 12 µM. The GI50 [28] was 3.17 µM, the TGI [28] was 16.8 µM and the GI50 [29] was 2.97 µM. For the same compound, the TGI [29] was 9.16 µM, the GI50 [30] was 2.9 µM and the TGI [30] was 10.6 µM. The GI50 [31] was 3.66 µM, the TGI [31] was over 100 µM and the GI50 [32] was 2.67 µM. For the same compound, the TGI [32] was 31.9 µM, the GI50 [33] was 3.13 µM and the TGI [33] was 12.3 µM. It also gave a GI50 [34] of 1.6 µM, a TGI [34] of 3.32 µM and a GI50 [35] of 1.66 µM. It also gave a TGI [35] of 5.16 µM, a GI50 [36] of 2.64 µM and a TGI [36] of 7.78 µM. For the same compound, the GI50 [37] was 2.75 µM, the TGI [37] was 9.98 µM and the GI50 [38] was 1.72 µM. For the same compound, the TGI [38] was 7.82 µM, the GI50 [39] was 2.79 µM and the TGI [39] was 14.2 µM. The GI50 [40] was 4.43 µM, the TGI [40] was 16.1 µM and the GI50 [41] was 1.47 µM. For the same compound, the TGI [41] was 7.18 µM, the GI50 [42] was 2.51 µM and the TGI [42] was 8.77 µM. The GI50 [43] was 1.82 µM, the TGI [43] was 10.8 µM and the GI50 [44] was 2.64 µM. For the same compound, the TGI [44] was 14.6 µM, the GI50 [45] was 3.06 µM and the TGI [45] was 22.8 µM. For the same compound, the GI50 [46] was 2.83 µM, the TGI [46] was 12.6 µM and the GI50 [47] was 1.29 µM. It also gave a TGI [47] of 3.51 µM, a GI50 [48] of 3.09 µM and a TGI [48] of 13.8 µM. The GI50 [49] was 1.48 µM, the TGI [49] was 5.83 µM and the GI50 [50] was 2.24 µM. For the same compound, the TGI [50] was 6.55 µM, the GI50 [51] was 2.82 µM and the TGI [51] was 11.3 µM. For the same compound, the GI50 [52] was 2.44 µM, the TGI [52] was 21 µM and the GI50 [53] was 2.49 µM. It also gave a TGI [53] of 8.76 µM, a GI50 [54] of 1.96 µM and a TGI [54] of 7.36 µM. For the same compound, the GI50 [55] was 2.13 µM, the TGI [55] was 8.29 µM and the GI50 [56] was 1.64 µM. For the same compound, the TGI [56] was 5.37 µM, the GI50 [57] was 2.37 µM and the TGI [57] was 6.71 µM.
For Clc1cc(OCc2nn3c(Cc4ccccc4)nnc3s2)ccc1OCc1nn2c(Cc3ccccc3)nnc2s1, the TGI [1] was 82.7 µM, the TGI [2] was over 100 µM and the TGI [3] was over 100 µM. For the same compound, the TGI [4] was 51.5 µM, the TGI [5] was over 100 µM and the TGI [6] was over 100 µM. The TGI [7] was over 100 µM, the TGI [8] was over 100 µM and the TGI [9] was over 100 µM. It also gave a TGI [10] of 72.1 µM, a TGI [12] of over 100 µM and a TGI [13] of over 100 µM. For the same compound, the TGI [14] was over 100 µM, the TGI [15] was 66.2 µM and the TGI [16] was over 100 µM. For the same compound, the TGI [17] was over 100 µM, the TGI [18] was over 100 µM and the TGI [19] was over 100 µM. It also gave a TGI [20] of over 100 µM, a TGI [21] of over 100 µM and a TGI [22] of over 100 µM. It also gave a TGI [23] of 56.8 µM, a TGI [24] of 63.9 µM and a TGI [25] of over 100 µM. The TGI [26] was over 100 µM, the TGI [27] was over 100 µM and the TGI [28] was over 100 µM. The TGI [29] was over 100 µM, the TGI [30] was over 100 µM and the TGI [31] was over 100 µM. For the same compound, the TGI [32] was 62.9 µM, the TGI [33] was over 100 µM and the TGI [58] was 39 µM. It also gave a TGI [34] of over 100 µM, a TGI [35] of over 100 µM and a TGI [36] of over 100 µM. It also gave a TGI [37] of over 100 µM, a TGI [38] of 79.4 µM and a TGI [39] of over 100 µM. The TGI [40] was 59.3 µM, the TGI [41] was 46.5 µM and the TGI [42] was over 100 µM. It also gave a TGI [43] of over 100 µM, a TGI [44] of 66.8 µM and a TGI [45] of 99.6 µM. It also gave a TGI [46] of over 100 µM, a TGI [47] of over 100 µM and a TGI [48] of over 100 µM. It also gave a TGI [49] of 79.6 µM, a TGI [50] of over 100 µM and a TGI [51] of over 100 µM. For the same compound, the TGI [52] was over 100 µM, the TGI [53] was over 100 µM and the TGI [54] was over 100 µM. The TGI [55] was over 100 µM, the TGI [56] was over 100 µM and the TGI [57] was over 100 µM.
With C=CCN1C(=O)CC1N(CC=C)S(=O)(=O)c1ccc(C)cc1 (stereo not drawn) the TGI [1] was over 100 µM, the TGI [2] was over 100 µM and the TGI [3] was over 100 µM. It also gave a TGI [4] of over 100 µM, a TGI [5] of over 100 µM and a TGI [6] of over 100 µM. The TGI [7] was over 100 µM, the TGI [8] was over 100 µM and the TGI [9] was over 100 µM. The TGI [10] was over 100 µM, the TGI [11] was over 100 µM and the TGI [12] was over 100 µM. For the same compound, the TGI [13] was over 100 µM, the TGI [14] was over 100 µM and the TGI [15] was over 100 µM. It also gave a TGI [16] of over 100 µM, a TGI [17] of over 100 µM and a TGI [18] of over 100 µM. The TGI [19] was over 100 µM, the TGI [20] was over 100 µM and the TGI [21] was over 100 µM. The TGI [22] was over 100 µM, the TGI [23] was over 100 µM and the TGI [24] was over 100 µM. The TGI [25] was over 100 µM, the TGI [26] was over 100 µM and the TGI [27] was over 100 µM. It also gave a TGI [59] of over 100 µM, a TGI [29] of over 100 µM and a TGI [30] of over 100 µM. It also gave a TGI [31] of over 100 µM, a TGI [32] of over 100 µM and a TGI [34] of over 100 µM. For the same compound, the TGI [35] was over 100 µM, the TGI [36] was over 100 µM and the TGI [37] was over 100 µM. The TGI [39] was over 100 µM, the TGI [40] was over 100 µM and the TGI [41] was over 100 µM. For the same compound, the TGI [42] was over 100 µM, the TGI [43] was over 100 µM and the TGI [45] was over 100 µM. For the same compound, the TGI [47] was over 100 µM, the TGI [48] was over 100 µM and the TGI [49] was over 100 µM. The TGI [50] was over 100 µM, the TGI [51] was over 100 µM and the TGI [52] was over 100 µM. For the same compound, the TGI [53] was over 100 µM, the TGI [54] was over 100 µM and the TGI [55] was over 100 µM. For the same compound, the TGI [56] was over 100 µM.

— PubChem BioAssay (NCI)
